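Assay format: 96-well plates, 48-hour exposure. GI50 is the concentration that inhibits growth by half.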 Calls of active or inactive are those of the source. No stated cut-off is given here; in the data, active = GI50 up to about 1.1 µM and inactive = higher.
Experiments:
Assay in all cases: inhibition of tumour cell growth, NCI panel, 48 h
786-0 = system: 786-0
ACHN = system: ACHN
HCT-116 = system: HCT-116
IGROV-1 = system: IGROV-1
MOLT-4 = system: MOLT-4
Malme-3M = system: Malme-3M
NCI-H23 = system: NCI-H23
NCI-H460 = system: NCI-H460
NCI-H522 = system: NCI-H522
OVCAR-3 = system: OVCAR-3
OVCAR-5 = system: OVCAR-5
OVCAR-8 = system: OVCAR-8
SK-MEL-2 = system: SK-MEL-2
SNB-75 = system: SNB-75
SW-620 = system: SW-620
U-251 = system: U-251
UACC-257 = system: UACC-257
CAKI-1 = system: CAKI-1

Measured: GI50

C[Si](C)(C)/C=C\CCCN1C(=O)CCC1=O
inactive: 786-0 > 100 µM | ACHN > 100 µM | HCT-116 > 100 µM | IGROV-1 > 100 µM | MOLT-4 > 100 µM | Malme-3M > 100 µM | NCI-H23 > 100 µM | NCI-H460 > 100 µM | NCI-H522 > 100 µM | OVCAR-3 > 100 µM | OVCAR-5 86.5 µM | OVCAR-8 > 100 µM | SK-MEL-2 > 100 µM | SNB-75 62.5 µM | SW-620 > 100 µM | U-251 > 100 µM | UACC-257 > 100 µM

O=C(CC1(O)C(=O)Nc2ccc([N+](=O)[O-])cc21)c1ccncc1 (stereo not drawn)
inactive: 786-0 69.7 µM | ACHN 43.3 µM | HCT-116 30.8 µM | MOLT-4 24.2 µM | Malme-3M 21.8 µM | NCI-H23 22.1 µM | NCI-H460 48.6 µM | NCI-H522 29.8 µM | OVCAR-3 25.2 µM | OVCAR-5 > 100 µM | OVCAR-8 46.2 µM | SK-MEL-2 85.1 µM | SNB-75 26.1 µM | SW-620 20.5 µM | U-251 20.1 µM | UACC-257 17.9 µM

Cc1cc([N+](=O)[O-])ccc1NC(=O)C(=O)C(C(=O)c1ccccc1-c1ccccc1)C1OC(=O)c2ccccc21 (stereo not drawn)
inactive: 786-0 16.1 µM | ACHN 31.3 µM | CAKI-1 23.8 µM | HCT-116 16 µM | IGROV-1 19.6 µM | MOLT-4 15.6 µM | Malme-3M 13.1 µM | NCI-H23 25.6 µM | NCI-H460 17 µM | NCI-H522 12.9 µM | OVCAR-5 15.4 µM | OVCAR-8 20.8 µM | SK-MEL-2 12.6 µM | SW-620 18 µM | U-251 12.5 µM | UACC-257 25.4 µM

Cc1nc2ccccc2c(=O)n1/N=C(\N=N\c1ccc(Cl)cc1)c1cccc(-c2ccco2)c1
inactive: 786-0 39.6 µM | ACHN 30.5 µM | CAKI-1 25.5 µM | HCT-116 19.1 µM | IGROV-1 31.3 µM | MOLT-4 22.4 µM | NCI-H23 21.6 µM | NCI-H460 37.7 µM | NCI-H522 17.7 µM | OVCAR-8 33.1 µM | SW-620 42.5 µM | U-251 27.5 µM

CC1CC(=O)C(CC(=O)O)C1C(C(=O)C(=O)Nc1c(C#N)cccc1[N+](=O)[O-])[N+](=O)[O-] (stereo not drawn)
inactive: 786-0 > 100 µM | ACHN > 100 µM | CAKI-1 > 100 µM | HCT-116 > 100 µM | IGROV-1 > 100 µM | MOLT-4 > 100 µM | Malme-3M > 100 µM | NCI-H23 > 100 µM | NCI-H460 > 100 µM | OVCAR-3 > 100 µM | OVCAR-5 > 100 µM | OVCAR-8 > 100 µM | SK-MEL-2 > 100 µM | SNB-75 > 100 µM | SW-620 > 100 µM | U-251 > 100 µM | UACC-257 > 100 µM

COc1cc(/C=N/N=C(\N)NO)cc(Cl)c1O
inactive: 786-0 43.7 µM | ACHN 34.4 µM | CAKI-1 26.9 µM | HCT-116 55.7 µM | IGROV-1 69.7 µM | MOLT-4 50.2 µM | Malme-3M 55.2 µM | NCI-H23 36.9 µM | NCI-H460 41.6 µM | NCI-H522 > 100 µM | OVCAR-3 70.3 µM | OVCAR-5 35.3 µM | OVCAR-8 65.6 µM | SK-MEL-2 81.1 µM | SW-620 99.3 µM | U-251 48.9 µM | UACC-257 73.8 µM

CC(=O)NS(=O)(=O)c1ccc(NC(=O)COC(=O)c2cccc3c(=O)c4ccccc4[nH]c23)cc1
inactive: 786-0 > 100 µM | ACHN > 100 µM | HCT-116 > 100 µM | IGROV-1 > 100 µM | MOLT-4 > 100 µM | Malme-3M > 100 µM | NCI-H23 > 100 µM | NCI-H460 > 100 µM | NCI-H522 > 100 µM | OVCAR-3 92.5 µM | OVCAR-8 > 100 µM | SK-MEL-2 > 100 µM | SNB-75 > 100 µM | SW-620 > 100 µM | U-251 > 100 µM | UACC-257 > 100 µM

NC1C[C@H](n2cc(/C=C/Br)c(=O)[nH]c2=O)C[C@@H]1CO (stereo partly drawn)
inactive: 786-0 > 100 µM | ACHN > 100 µM | MOLT-4 > 100 µM | NCI-H23 > 100 µM | NCI-H460 > 100 µM | NCI-H522 > 100 µM | OVCAR-3 > 100 µM | OVCAR-8 > 100 µM | SNB-75 > 100 µM | U-251 > 100 µM | UACC-257 > 100 µM

COC(=O)CCC(NC(=S)N/N=C(\C)c1ccco1)C(=O)OC (stereo not drawn)
inactive: 786-0 > 100 µM | ACHN > 100 µM | HCT-116 > 100 µM | IGROV-1 > 100 µM | Malme-3M > 100 µM | NCI-H23 > 100 µM | NCI-H460 > 100 µM | NCI-H522 > 100 µM | OVCAR-3 > 100 µM | OVCAR-5 > 100 µM | OVCAR-8 > 100 µM | SK-MEL-2 > 100 µM | SNB-75 > 100 µM | SW-620 > 100 µM | U-251 > 100 µM | UACC-257 > 100 µM

Source: ChEMBL document CHEMBL1201862, “PubChem BioAssay data set” (2004)
